Measurements as given in article PMC9133015 (Nature Communications, 2022).
Where “and” joins values, the source holds several entries; their conditions need not be identical. Equal entries are not always repeated.

Experiments:
[1] = tested on: RWPE-1 cells; test: Anti-proliferation activity assay (CCK8, 72 h); type: cell-based; settings: for Relative proliferation rate (%) mean / Relative proliferation rate (%) / optical density: RWPE1; for Relative proliferation rate (%) / optical density: replicates
[2] = tested on: DU145 cells; test: Cell growth assay (5-day course); type: cell-based, human
[3] = tested on: 22Rv1 cells; test: Cell growth assay (5-day course); type: cell-based, human
[4] = tested on: PC-3 cells; test: Cell growth assay (5-day course); type: cell-based, human; settings: PC-3; for Relative proliferation rate / optical density: replicates

For CCN1CCN(C(=O)c2ccc(Nc3ncc(F)c(-c4ccc5nc(N(C)C)sc5c4)n3)nc2)CC1 [YK-2-69], the “Relative proliferation rate (%) mean” value ([1]; 0.078 uM) was 1.172%, the “Relative proliferation rate (%)” value ([1]; 0.078 uM) was 1.172% and 0.4794% and 1.866% and the optical density ([1]; 0.078 uM) was 1.096 and 1.038 and 1.052. The “Relative proliferation rate (%) mean” value ([1]; 0.3125 uM) was 5.563%, the “Relative proliferation rate (%)” value ([1]; 0.3125 uM) was 5.591% and 3.3557% and 7.743% and the optical density ([1]; 0.3125 uM) was 1.047 and 1.008 and 0.989. For the same compound, the “Relative proliferation rate (%) mean” value ([1]; 1.25 uM) was 13.0424%, the “Relative proliferation rate (%)” value ([1]; 1.25 uM) was 13.0748% and 7.862% and 18.1903% and the optical density ([1]; 1.25 uM) was 0.964 and 0.961 and 0.877. The “Relative proliferation rate (%) mean” value ([1]; 5 uM) was 20.9606%, the “Relative proliferation rate (%)” value ([1]; 5 uM) was 21.0099% and 16.7785% and 25.0933% and the optical density ([1]; 5 uM) was 0.876 and 0.868 and 0.803. The “Relative proliferation rate (%) mean” value ([1]; 20 uM) was 54.7483%, the “Relative proliferation rate (%)” value ([1]; 20 uM) was 54.734% and 48.1304% and 61.3806% and the optical density ([1]; 20 uM) was 0.502 and 0.541 and 0.414. For the same compound, the “Relative proliferation rate (%) mean” value ([1]; 80 uM) was 72.5701%, the “Relative proliferation rate (%)” value ([1]; 80 uM) was 72.5879% and 64.5254% and 80.597% and the optical density ([1]; 80 uM) was 0.304 and 0.37 and 0.208. For the same compound, the “inhibitory activity against proliferation (in words)” value ([1]; RWPE-1 cells) was “weak inhibitory activity”, the “Relative proliferation rate mean” value ([2]; DU145, 4 μM, day 1) was 1.572 and the “Relative proliferation rate mean” value ([2]; DU145, 4 μM, day 2) was 2.148. For the same compound, the “Relative proliferation rate mean” value ([2]; DU145, 4 μM, day 3) was 4.361, the “Relative proliferation rate mean” value ([2]; DU145, 4 μM, day 4) was 5.61 and the “Relative proliferation rate mean” value ([2]; DU145, 8 μM, day 1) was 1.538. The “Relative proliferation rate mean” value ([2]; DU145, 8 μM, day 2) was 2.008, the “Relative proliferation rate mean” value ([2]; DU145, 8 μM, day 3) was 3.775 and the “Relative proliferation rate mean” value ([2]; DU145, 8 μM, day 4) was 4.448. For the same compound, the “Relative proliferation rate mean” value ([2]; DU145, 12 μM, day 1) was 1.322, the “Relative proliferation rate mean” value ([2]; DU145, 12 μM, day 2) was 1.207 and the “Relative proliferation rate mean” value ([2]; DU145, 12 μM, day 3) was 1.763. The “Relative proliferation rate mean” value ([2]; DU145, 12 μM, day 4) was 2.506, the “cell proliferation, 5-day course/colony (in words)” value ([2]; DU145 cells, dose-dependent) was “significantly inhibited the cell proliferation” and the “Relative proliferation rate mean” value ([3]; 22Rv1, 0.5 µM, day 1) was 1.179. The “Relative proliferation rate mean” value ([3]; 22Rv1, 0.5 µM, day 2) was 1.871, the “Relative proliferation rate mean” value ([3]; 22Rv1, 0.5 µM, day 3) was 2.62 and the “Relative proliferation rate mean” value ([3]; 22Rv1, 0.5 µM, day 4) was 3.018. For the same compound, the “Relative proliferation rate mean” value ([3]; 22Rv1, 1 µM, day 1) was 1.007, the “Relative proliferation rate mean” value ([3]; 22Rv1, 1 µM, day 2) was 1.59 and the “Relative proliferation rate mean” value ([3]; 22Rv1, 1 µM, day 3) was 1.919. The “Relative proliferation rate mean” value ([3]; 22Rv1, 1 µM, day 4) was 2.135, the “Relative proliferation rate mean” value ([3]; 22Rv1, 2 µM, day 1) was 0.9977 and the “Relative proliferation rate mean” value ([3]; 22Rv1, 2 µM, day 2) was 1.414. The “Relative proliferation rate mean” value ([3]; 22Rv1, 2 µM, day 3) was 1.775, the “Relative proliferation rate mean” value ([3]; 22Rv1, 2 µM, day 4) was 1.902 and the “cell proliferation, 5-day course/colony (in words)” value ([3]; 22Rv1 cells, dose-dependent) was “significantly inhibited the cell proliferation”. For the same compound, the “Relative proliferation rate mean” value ([4]; 1 µM, day 0) was 1, the Relative proliferation rate ([4]; 1 µM, day 0) was 1 and the optical density ([4]; 1 µM, day 0) was 0.270. The “Relative proliferation rate mean” value ([4]; 1 µM, day 1) was 1.314, the Relative proliferation rate ([4]; 1 µM, day 1) was 1.339 and 1.335 and 1.268 and the optical density ([4]; 1 µM, day 1) was 0.361 and 0.36 and 0.342. The “Relative proliferation rate mean” value ([4]; 1 µM, day 2) was 1.774, the Relative proliferation rate ([4]; 1 µM, day 2) was 1.713 and 1.81 and 1.799 and the optical density ([4]; 1 µM, day 2) was 0.462 and 0.488 and 0.485. The “Relative proliferation rate mean” value ([4]; 1 µM, day 3) was 3.173, the Relative proliferation rate ([4]; 1 µM, day 3) was 3.23 and 3.148 and 3.141 and the optical density ([4]; 1 µM, day 3) was 0.871 and 0.849 and 0.847. The “Relative proliferation rate mean” value ([4]; 1 µM, day 4) was 6.7021, the Relative proliferation rate ([4]; 1 µM, day 4) was 6.623 and 6.6712 and 6.812 and the optical density ([4]; 1 µM, day 4) was 1.786 and 1.799 and 1.837. The “Relative proliferation rate mean” value ([4]; 2 µM, day 0) was 1, the Relative proliferation rate ([4]; 2 µM, day 0) was 1 and the optical density ([4]; 2 µM, day 0) was 0.273. For the same compound, the “Relative proliferation rate mean” value ([4]; 2 µM, day 1) was 1.2692, the Relative proliferation rate ([4]; 2 µM, day 1) was 1.28 and 1.295 and 1.233 and the optical density ([4]; 2 µM, day 1) was 0.35 and 0.354 and 0.337. For the same compound, the “Relative proliferation rate mean” value ([4]; 2 µM, day 2) was 1.697, the Relative proliferation rate ([4]; 2 µM, day 2) was 1.752 and 1.668 and 1.672 and the optical density ([4]; 2 µM, day 2) was 0.479 and 0.456 and 0.457. The “Relative proliferation rate mean” value ([4]; 2 µM, day 3) was 2.625, the Relative proliferation rate ([4]; 2 µM, day 3) was 2.612 and 2.575 and 2.688 and the optical density ([4]; 2 µM, day 3) was 0.714 and 0.704 and 0.735. The “Relative proliferation rate mean” value ([4]; 2 µM, day 4) was 5.619 and the Relative proliferation rate ([4]; 2 µM, day 4) was 5.662 and 5.571 and 5.625.
